Source: patent US8541461B2 (Astex Therapeutics Limited, priority 2005, dated 2013)
Like-named read-outs stand apart in the source and are kept apart here.

Key:
PKA catalytic domain = molecular target: T1, PKA catalytic domain (Homo sapiens, UniProt P17612); assay: Measurement of PKA kinase inhibitory activity (IC50); type: biochemical
T1 construct: PKA catalytic domain from Upstate Biotechnology (#14-440); purchased Upstate Biotechnology 14-440
Method: A final concentration of 1 nM enzyme is used in a buffer that includes 20 mM MOPS pH 7.2, 40 μM ATP/γ^33P-ATP and 5 μM substrate. […] The reaction is allowed to proceed for 20 minutes before addition of excess orthophosphoric acid to quench activity. Unincorporated γ^33P-ATP is then separated from phosphorylated proteins on a Millipore MAPH filter plate. The plates are washed, scintillant is added and the plates are then subjected to counting on a Packard Topcount.

[1] = molecular target: T2, PKB-PIF fusion protein (protein kinase B) (Homo sapiens, UniProt P31751); assay: Measurement of PKB kinase inhibitory activity (IC50); type: biochemical
T2 construct: PIF (fusion partner); made in house
T2 sequence (P31751 with tags, fused parts or gaps limits assumed): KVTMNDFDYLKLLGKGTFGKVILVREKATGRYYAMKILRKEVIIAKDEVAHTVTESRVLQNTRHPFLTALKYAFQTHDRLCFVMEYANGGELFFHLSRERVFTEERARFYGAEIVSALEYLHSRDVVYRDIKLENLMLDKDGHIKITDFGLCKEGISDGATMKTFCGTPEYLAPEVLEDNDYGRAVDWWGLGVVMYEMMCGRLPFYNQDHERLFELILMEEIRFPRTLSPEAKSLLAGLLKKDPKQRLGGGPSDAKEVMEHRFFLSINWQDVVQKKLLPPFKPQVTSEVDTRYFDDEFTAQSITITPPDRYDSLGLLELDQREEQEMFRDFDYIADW
Method: The reaction is allowed to proceed for 20 minutes before addition of excess orthophosphoric acid to quench activity. The reaction mixture is transferred to a phosphocellulose filter plate where the peptide binds and the unused ATP is washed away. After washing, scintillant is added and the incorporated activity measured by scintillation counting.

[2] = 1 nM enzyme, 40 μM ATP/γ33P-ATP, 5 μM substrate, read-out: PKA IC50
[3] = 0.6 nM enzyme, 30 μM ATP/γ33P-ATP, 25 μM AKTide-2T substrate, read-out: PKB IC50

| IC50 (PKA catalytic domain; [2]) | IC50 [1, 3] | Compound | IC50 (PKA catalytic domain) | IC50 [1] |
| --- | --- | --- | --- | --- |
| – | – | NCC(c1ccccc1)c1ccc(-c2cn[nH]c2)cc1 (centres unmarked) [Example 1, 2-Phenyl-2-[4-(1H-pyrazol-4-yl)-phenyl]-ethylamine] | < 1000 nM | < 1000 nM |
| < 1000 nM | – | NCC(c1ccc(Cl)cc1)c1ccc(-c2cn[nH]c2)cc1 (centres unmarked) [Example 4, 2-(4-Chloro-phenyl)-2-[4-(1H-pyrazol-4-yl)-phenyl]-ethylamine] | – | – |
| < 15000 nM | < 5000 nM | NCC(Cc1ccccc1)c1ccc(-c2cn[nH]c2)cc1 (centres unmarked) [Example 7, 3-Phenyl-2-[4-(1H-pyrazol-4-yl)-phenyl]-propylamine] | – | – |
| < 1000 nM | < 1000 nM | CCNCC(c1ccc(Cl)cc1)c1ccc(-c2cn[nH]c2)cc1 (centres unmarked) [Example 43, {2-(4-Chloro-phenyl)-2-[4-(1H-pyrazol-4-yl)-phenyl]-ethyl}-ethyl-amine] | – | – |
| < 1000 nM | < 1000 nM | Clc1ccc(C(Cn2ccnc2)c2ccc(-c3cn[nH]c3)cc2)cc1 (centres unmarked) [Example 44, 4-{4-[1-(4-Chloro-phenyl)-2-imidazol-1-yl-ethyl]-phenyl}-1H-pyrazole] | – | – |
| < 1000 nM | < 5000 nM | CNCC(c1ccc(Oc2ccccc2)cc1)c1ccc(-c2cn[nH]c2)cc1 (centres unmarked) [Example 45, Methyl-{2-(4-phenoxy-phenyl)-2-[4-(1H-pyrazol-4-yl)-phenyl]-ethyl}-amine] | – | – |
| < 1000 nM | < 1000 nM | CNCC(c1ccc(OC)cc1)c1ccc(-c2cn[nH]c2)cc1 (centres unmarked) [Example 46, {2-(4-Methoxy-phenyl)-2-[4-(1H-pyrazol-4-yl)-phenyl]-ethyl}-methyl-amine] | – | – |
| < 1000 nM | < 1000 nM | CNCC(c1ccc(Oc2cnccn2)cc1)c1ccc(-c2cn[nH]c2)cc1 (centres unmarked) [Example 47, Methyl-{2-[4-(pyrazin-2-yloxy)-phenyl]-2-[4-(1H-pyrazol-4-yl)-phenyl]-ethyl}-amine] | – | – |
| < 1000 nM | < 5000 nM | CNCC(Oc1ccccc1)c1ccc(-c2cn[nH]c2)cc1 (centres unmarked) [Example 48, Methyl-{2-phenoxy-2-[4-(1H-pyrazol-4-yl)-phenyl]-ethyl}-amine] | – | – |
| < 1000 nM | < 1000 nM | NCCOC(c1ccc(Cl)cc1)c1ccc(-c2cn[nH]c2)cc1 (centres unmarked) [Example 49, 2-{(4-Chloro-phenyl)-[4-(1H-pyrazol-4-yl)-phenyl]-methoxy}-ethylamine] | – | – |
| < 1000 nM | < 1000 nM | CNCCC(c1ccc(-c2cn[nH]c2)cc1)c1ccc2ccccc2c1 (centres unmarked) [Example 52, Methyl-{3-naphthalen-2-yl-3-[4-(1H-pyrazol-4-yl)-phenyl]-propyl}-amine] | – | – |
| < 1000 nM | < 1000 nM | CNCCC(c1ccc(F)cc1)c1ccc(-c2cn[nH]c2)cc1 (centres unmarked) [Example 54, {3-(4-Fluoro-phenyl)-3-[4-(1H-pyrazol-4-yl)-phenyl]-propyl}-methyl-amine] | – | – |
| < 1000 nM | < 1000 nM | CNCCC(Oc1cccc(Cl)c1)c1ccc(-c2cn[nH]c2)cc1 (centres unmarked) [Example 59, {3-(3-Chloro-phenoxy)-3-[4-(1H-pyrazol-4-yl)-phenyl]-propyl}-methyl-amine] | – | – |
| < 1000 nM | < 1000 nM | Oc1ccc(C2(c3ccc(-c4cn[nH]c4)cc3)CCNCC2)cc1 [Example 63, 4-{4-[4-(1H-Pyrazol-4-yl)-phenyl]-piperidin-4-yl}-phenol] | – | – |
| < 1000 nM | < 1000 nM | CNCC(c1ccc(-c2cn[nH]c2)cc1)c1cccc(Cl)c1 (centres unmarked) [Example 66, {2-(3-Chloro-phenyl)-2-[4-(1H-pyrazol-4-yl)-phenyl]-ethyl}-methyl-amine] | – | – |
| < 1000 nM | < 5000 nM | COCCOc1ccc(C2(c3ccc(-c4cn[nH]c4)cc3)CCNCC2)cc1 [Example 67, 4-[4-(2-Methoxy-ethoxy)-phenyl]-4-[4-(1H-pyrazol-4-yl)-phenyl]-piperidine] | – | – |

| IC50 (PKA catalytic domain; [2]) | IC50 [1, 3] | Compound | IC50 (PKA catalytic domain) | IC50 [1] |
| --- | --- | --- | --- | --- |
| < 1000 nM | < 1000 nM | OCCNCC(c1ccc(Cl)cc1)c1ccc(-c2cn[nH]c2)cc1 (centres unmarked) [Example 73, 2-{2-(4-Chloro-phenyl)-2-[4-(1H-pyrazol-4-yl)-phenyl]-ethylamino}-ethanol] | – | – |
| – | < 1000 nM | CNCCC(c1ccc(O)cc1)c1ccc(-c2cn[nH]c2)cc1 (centres unmarked) [Example 76, 4-{3-Methylamino-1-[4-(1H-pyrazol-4-yl)-phenyl]-propyl}-phenol] | – | – |
| – | < 1000 nM | COc1ccc(C(CCN)c2ccc(-c3cn[nH]c3)cc2)cc1 (centres unmarked) [Example 77, 3-(4-Methoxy-phenyl)-3-[4-(1H-pyrazol-4-yl)-phenyl]-propylamine] | – | – |
| < 1000 nM | < 1000 nM | Cc1n[nH]cc1-c1ccc(C2(c3ccc(Cl)cc3)CCNCC2)cc1 [Example 78, 4-(4-Chloro-phenyl)-4-[4-(3-methyl-1H-pyrazol-4-yl)-phenyl]-piperidine] | – | – |
| – | – | Clc1ccc(C2(c3ccc(-c4cn[nH]c4)cc3)CNCCO2)cc1 (centres unmarked) [Example 79, 2-(4-Chloro-phenyl)-2-[4-(1H-pyrazol-4-yl)-phenyl]-morpholine] | < 1000 nM | < 1000 nM |
| < 1000 nM | < 1000 nM | N#Cc1ccc(C2(c3ccc(-c4cn[nH]c4)cc3)CCNCC2)cc1 [Example 81, 4-{4-[4-(1H-Pyrazol-4-yl)-phenyl]-piperidin-4-yl}-benzonitrile] | – | – |
| < 1000 nM | < 1000 nM | CNCC(C)(c1ccc(Cl)cc1)c1ccc(-c2cn[nH]c2)cc1 (centres unmarked) [Example 82, {2-(4-Chloro-phenyl)-2-[4-(1H-pyrazol-4-yl)-phenyl]-propyl}-methyl-amine] | – | – |
| < 1000 nM | < 1000 nM | CNCC(O)(c1ccc(Cl)cc1)c1ccc(-c2cn[nH]c2)cc1 (centres unmarked) [Example 83, 1-(4-Chloro-phenyl)-2-methylamino-1-[4-(1H-pyrazol-4-yl)-phenyl]-ethanol] | – | – |
| < 1000 nM | < 1000 nM | NCC(O)(c1ccc(Cl)cc1)c1ccc(-c2cn[nH]c2)cc1 (centres unmarked) [Example 84, 2-Amino-1-(4-chloro-phenyl)-1-[4-(1H-pyrazol-4-yl)-phenyl]-ethanol] | – | – |
| < 1000 nM | < 1000 nM | Clc1ccc(C2(c3ccc(-c4cn[nH]c4)cc3)CCNCC2)cc1Cl [Example 85, 4-(3,4-Dichloro-phenyl)-4-[4-(1H-pyrazol-4-yl)-phenyl]-piperidine] | – | – |
| – | < 1000 nM | Fc1cc(C2(c3ccc(-c4cn[nH]c4)cc3)CCNCC2)ccc1Cl [Example 87, 4-(4-Chloro-3-fluoro-phenyl)-4-[4-(1H-pyrazol-4-yl)-phenyl]-piperidine] | – | – |
| – | < 5000 nM | c1cc(C2(c3ccc(-c4cn[nH]c4)cc3)CCNCC2)ccn1 [Example 89, 4-[4-(1H-Pyrazol-4-yl)-phenyl]-1,2,3,4,5,6-hexahydro-[4,4′]bipyridinyl] | – | – |
| – | < 1000 nM | CNCC(O)(c1ccc(-c2cn[nH]c2)cc1)c1ccc([N+](=O)[O-])cc1 (centres unmarked) [Example 91, 2-Methylamino-1-(4-nitro-phenyl)-1-[4-(1H-pyrazol-4-yl)-phenyl]-ethanol] | – | – |
| – | < 1000 nM | NCCC(c1ccc(-c2cn[nH]c2)nc1)c1ccc(Cl)c(Cl)c1 (centres unmarked) [Example 94, 3-(3,4-Dichloro-phenyl)-3-[6-(1H-pyrazol-4-yl)-pyridin-3-yl]-propylamine] | – | – |
| – | < 1000 nM | NC(c1ccc(Cl)cc1)c1ccc(-c2cn[nH]c2)cc1 (centres unmarked) [Example 104, C-(4-Chloro-phenyl)-C-[4-(1H-pyrazol-4-yl)-phenyl]-methylamine] | – | – |

| Compound | IC50 (PKA catalytic domain; [2]) | IC50 [1, 3] | IC50 (PKA catalytic domain) | IC50 [1] |
| --- | --- | --- | --- | --- |
| Cc1n[nH]c(C)c1-c1cccc(CC(N)c2ccccc2)c1 (centres unmarked) [Example 5, 2-[3-(3,5-Dimethyl-1H-pyrazol-4-yl)-phenyl]-1-phenyl-ethylamine] | < 15000 nM | < 5000 nM | – | – |
